Our source for the inhibition values is patent publication US9751878B2, “Tetrahydronaphthyridine somatostatin receptor 5 antagonists” (Takeda Pharmaceutical Company Limited, priority 2013, dated 2017).

T1 sequence (P35346 whole entry): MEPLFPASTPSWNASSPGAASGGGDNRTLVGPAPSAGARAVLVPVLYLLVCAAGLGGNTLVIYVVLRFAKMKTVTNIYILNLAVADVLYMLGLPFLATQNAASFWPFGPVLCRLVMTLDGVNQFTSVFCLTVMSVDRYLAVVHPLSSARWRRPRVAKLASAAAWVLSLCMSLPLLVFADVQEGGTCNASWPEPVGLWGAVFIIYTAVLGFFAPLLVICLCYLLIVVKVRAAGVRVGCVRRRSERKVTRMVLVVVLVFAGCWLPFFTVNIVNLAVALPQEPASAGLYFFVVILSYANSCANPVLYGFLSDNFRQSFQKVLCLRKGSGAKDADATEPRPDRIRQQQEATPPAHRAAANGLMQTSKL

The assay concerns the target T1, human SSTR5 (Homo sapiens, UniProt P35346).
T1 construct: expressed in transfected cells
The assay can be described thus: Evaluation of human SSTR5 antagonist activity using intracellular cAMP concentration as index. The format is cell-based. Particulars: 1 μM test compound; CHO (dhfr-) cells stably expressing human SSTR5; 0.1 nM somatostatin 28, 0.3 μM forskolin; cAMP HTRF; read-out: Inhibition rate against SSTR5 at 1 μM. As for the experimental part:
Evaluation of Human SSTR5 Antagonist Activity Using Intracellular cAMP Concentration as Index
The intracellular cAMP concentration was measured using HTRF cAMP dynamic 2 kit (Cisbio Bioassays). Each test compound diluted with an assay buffer (HBSS (Invitrogen Corp.) containing 5 mM HEPES (pH 7.5) (Invitrogen Corp.), 0.1% fatty-acid free BSA (Sigma-Aldrich Corp.), and 500 μM IBMX (Wako Pure Chemical Industries, Ltd.)) was added at a concentration of 2 μL/well to a 384-well white plate (Greiner Bio-One Co., Ltd.) to give the final concentration of 1 μM. A frozen stock of CHO (dhfr-) cells stably expressing the human SSTR5 gene (Accession No. NM_001053) was thawed in a thermostat bath of 37° C. and suspended in a subculture medium (MEM alpha (Wako Pure Chemical Industries, Ltd.), 10% dialyzed serum (Gemini Bio-Products), and 50 μg/mL gentamicin (Invitrogen Corp.). After centrifugation of the cell suspension, the cells were resuspended in an assay buffer and added at a concentration of 2 μL/well (about 4,000 cells/well) to the plate. The compound and the cells were incubated for 15 minutes, and then, an assay buffer containing 0.1 nM (final concentration) somatostatin 28 (Toray Research Center) and 0.3 μM (final concentration) forskolin (Wako Pure Chemical Industries, Ltd.) was added thereto at a concentration of 2 μL/well, followed by incubation at room temperature for 30 minutes. cAMP-d2 and anti-cAMP-cryptate were each added thereto at a concentration of 3 μL/well. The plate was left standing at room temperature for 60 minutes. Then, the fluorescence resonance energy transfer (FRET) intensity was measured using Multi-label reader Envision (PerkinElmer). The FRET intensity of the wells supplemented with the test compound group was converted to a cAMP concentration using a calibration curve prepared from the FRET intensity of a well group containing an assay buffer supplemented with an arbitrary concentration of cAMP. The inhibitory activity of each compound was calculated according to the following expression: Inhibitory activity (%)=(C−B)/(A−B)×100 A: cAMP concentration calculated from the wells supplemented with 0.3 μM forskolin B: cAMP concentration calculated from the wells supplemented with 0.3 μM forskolin and 0.1 nM somatostatin 28 C: cAMP concentration calculated from the wells supplemented with 0.3 μM forskolin, 0.1 nM somatostatin 28, and 1 μM test compound
(In TR-FRET formats the signal depends on donor and acceptor labels being close together.)
Consider `CCOc1cc(CN2CCC(N3CCc4nc(C)c(C(=O)O)cc4C3=O)CC2)cc(C2CC2)c1-c1ccc(F)cc1` [Example 1, 6-(1-((2-Cyclopropyl-6-ethoxy-4′-fluorobiphenyl-4-yl)methyl)piperidin-4-yl)-2-methyl-5-oxo-5,6,7,8-tetrahydro-1,6-naphthyridine-3-carboxylic acid], for which the inhibition at 1 µM was 91%. With `CCOc1cc(-c2ccc(F)cc2)c(C2CC2)cc1CN1CCC(N2CCc3nc(CC)c(C(=O)O)cc3C2=O)CC1` [Example 2, 6-(1-((2-Cyclopropyl-5-ethoxy-4′-fluorobiphenyl-4-yl)methyl)piperidin-4-yl)-2-ethyl-5-oxo-5,6,7,8-tetrahydro-1,6-naphthyridine-3-carboxylic acid], the inhibition at 1 µM is 86%. The figure for `CCOc1cc(-c2ccc(F)cc2)c(C2CC2)cc1CN1CCC(N2CCc3nc(C4CC4)c(C(=O)O)cc3C2=O)CC1` [Example 3, 2-Cyclopropyl-6-(1-((2-cyclopropyl-5-ethoxy-4′-fluorobiphenyl-4-yl)methyl)piperidin-4-yl)-5-oxo-5,6,7,8-tetrahydro-1,6-naphthyridine-3-carboxylic acid] is 115%. As for `CCOc1cc(-c2ccc(F)cc2)c(C2CC2)cc1CN1CCC(N2CCc3nc(C)c(C(=O)O)cc3C2=O)CC1` [Example 5, 6-(1-((2-Cyclopropyl-5-ethoxy-4′-fluorobiphenyl-4-yl)methyl)piperidin-4-yl)-2-methyl-5-oxo-5,6,7,8-tetrahydro-1,6-naphthyridine-3-carboxylic acid], the figure is 132%. As for `Cc1nc2c(cc1C(=O)O)C(=O)N(C1CCN(Cc3cc(C4CC4)c(-c4ccc(F)cc4)nc3OC(C)C)CC1)CC2` [Example 6, 6-(1-((5-Cyclopropyl-6-(4-fluorophenyl)-2-isopropoxypyridin-3-yl)methyl)piperidin-4-yl)-2-methyl-5-oxo-5,6,7,8-tetrahydro-1,6-naphthyridine-3-carboxylic acid], the figure is 88%. Regarding `Cc1nc2c(cc1C(=O)O)C(=O)N(C1CCN(Cc3cc(C4CC4)c(-c4ccc(F)cc4)cc3OC(C)C)CC1)CC2` [Example 7, 6-(1-((2-Cyclopropyl-4′-fluoro-5-isopropoxybiphenyl-4-yl)methyl)piperidin-4-yl)-2-methyl-5-oxo-5,6,7,8-tetrahydro-1,6-naphthyridine-3-carboxylic acid], the inhibition at 1 µM came to 88%.

As to `CCOc1cc(CN2CCC(N3CCc4nc(C)c(C(=O)O)cc4C3=O)CC2)cc(C2CC2)c1-c1ccc(F)c(F)c1` [Example 8, 6-(1-((2-Cyclopropyl-6-ethoxy-3′,4′-difluorobiphenyl-4-yl)methyl)piperidin-4-yl)-2-methyl-5-oxo-5,6,7,8-tetrahydro-1,6-naphthyridine-3-carboxylic acid], the inhibition at 1 µM turned out to be 97%.

As for `CCOc1cc(C2CCC2)c(C2CC2)cc1CN1CCC(N2CCc3ncc(C(=O)O)cc3C2=O)CC1` [Example 30, 6-(1-(4-Cyclobutyl-5-cyclopropyl-2-ethoxybenzyl)piperidin-4-yl)-5-oxo-5,6,7,8-tetrahydro-1,6-naphthyridine-3-carboxylic acid], the inhibition at 1 µM was 110%. As for `CCOc1cc(-c2ccc(F)cc2)c(C2CC2)cc1CN1CCC(N2CCc3ccc(C(=O)O)nc3C2=O)CC1` [Example 31, 7-(1-((2-Cyclopropyl-5-ethoxy-4′-fluorobiphenyl-4-yl)methyl)piperidin-4-yl)-8-oxo-5,6,7,8-tetrahydro-1,7-naphthyridine-2-carboxylic acid], the figure is 118%; as for `CCOc1nc(-c2ccc(F)cc2)c(C2CC2)cc1CN1CCC(N2CCc3nc(CC)c(C(=O)O)cc3C2=O)CC1` [Example 33, 6-(1-((5-Cyclopropyl-2-ethoxy-6-(4-fluorophenyl)pyridin-3-yl)methyl)piperidin-4-yl)-2-ethyl-5-oxo-5,6,7,8-tetrahydro-1,6-naphthyridine-3-carboxylic acid], 123%.

Usually inhibition stands for the drop in the measured response relative to a control, in per cent.
